According to patent EP0741749B1, “MERCURY BINDING POLYPEPTIDES AND N[…] THEREFOR” (priority 1994, dated 1995):

System: binding of antibody secreted by hybridoma designated as 1F10 to immobilized glutathione-mercuric ion
Experiment: Competitive inhibition ELISA: inhibition of antibody binding by metal ions
Settings: culture fluid of 1F10; at the highest concentration (final range 10^-1 M to 10^-6 M); 100000 µM
Method: Various methods were used to confirm that the antibodies secreted by hybridomas 4A10 and 1F10 were specific to mercuric ions. If the antibody being secreted by these hybridomas were specific, it should be possible to inhibit binding of the antibody to glutathione-mercuric ions by incubation in the presence of various concentrations of mercuric chloride. This competitive inhibition assay was conducted with antibody-containing culture fluids from the parental hybridomas 4A10 and 1F10.
Metal ions at the indicated concentrations were incubated with culture fluid from the monoclonal antibody in an enzyme-linked immunosorbent assay ("ELISA") plate. The absorbance at 405 nm was determined for each sample, and the percent inhibition of each metal ion concentration was determined by the following formula: Percent inhibition=(A405 of inhibitor - A405 of neg. control)/(A405 of pos. control - A405 of neg. control) [formula]
Various other metals were assayed for inhibition of binding of the monoclonal antibodies to mercuric ion. […] The absorbance at 405 nm was determined for each sample, and the percent inhibition of each metal ion concentration was determined by the same formula used for Figure 1. […]
The negative control measured the binding of a dinitrophenol specific antibody to the antigen mentioned above in the presence of the corresponding metal ions. […]

[Cl-].[Cl-].[Mg+2] [magnesium chloride]
Percent inhibition: ~50%
